Where a name gives a salt, the structure may show the parent alone.
Columns and labels:
[1] = tested on: Lipopolysaccharide (LPS)-induced lethal sepsis; parameters: species or system ICR mice; conditions: mouse, in vivo
[2] = tested on: experimental sepsis models; conditions: reported in literature; cited from earlier work

For CN(C(=O)/C=C/c1ccoc1)[C@@H]1CC[C@@]2(O)[C@H]3Cc4ccc(O)c5c4[C@@]2(CCN3CC2CC2)[C@H]1O5.Cl [Compound 1, (−)-17-(cyclopropylmethyl)-3,14β-dihydroxy-4,5α-epoxy-6 [N-methyl-trans-3-(3-furyl)acrylamide]morphinan hydrochloric acid salt], the “survival rate after 48 hours” value [1] was 40%, the “survival rate at 24 hours after administration of LPS” value [1] was 80% and the “survival rate of sepsis model animals (FIG. 1)” value [1] was “increases the survival rate”.
With (D)Phe-(D)Phe-(D)Nle-(D)Arg-NH2 the “survival rate at 24 hours after administration of LPS” value [1] was 66.7%.
In the case of C=CCN1CC[C@]23c4c5ccc(O)c4O[C@H]2C(=O)CC[C@@]3(O)[C@H]1C5 [naloxone], the “fever of experimental sepsis models” value [2] is given as “suppresses fever”.
For CN1CC[C@]23c4c5ccc(O)c4O[C@H]2[C@@H](O)C=C[C@H]3[C@H]1C5 [morphine], the “survival rate of experimental sepsis models” value [2] is given as “decrease survival rate”.
In the case of CN(C(=O)NCc1cccc(C(F)(F)F)c1)[C@@H]1CC[C@@]2(O)[C@H]3Cc4ccc(O)c5c4[C@@]2(CCN3CC2CC2)[C@H]1O5 [Compound 3, 17-cyclopropylmethyl-3,14β-dihydroxy-4,5α-epoxy-6β-(N-methyl-N′-3-trifluoromethylbenzylureido)morphinan tartaric acid salt], the “survival rate at 31 hours after administration of LPS” value [1] was 70.0%.

Reference: patent US7652025B2 (priority 2001, dated 2010)
